Here are results for four compounds from patent US8258140B2 (Astrazeneca AB, priority 2009, dated 2012).

The target in the assay is T1, isolated rat AR-LBD (Rattus norvegicus, UniProt P15207).
T1 construct: purchased Invitrogen PV4293
T1 sequence (P15207 651-882 limits assumed): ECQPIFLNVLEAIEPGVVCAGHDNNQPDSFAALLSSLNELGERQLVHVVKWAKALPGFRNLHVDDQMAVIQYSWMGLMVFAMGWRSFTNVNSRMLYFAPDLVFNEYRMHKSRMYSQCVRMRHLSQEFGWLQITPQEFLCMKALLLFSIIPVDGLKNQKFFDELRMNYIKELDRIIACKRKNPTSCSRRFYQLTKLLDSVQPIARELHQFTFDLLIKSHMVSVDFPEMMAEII
As to the kind of experiment: Androgen Receptor Ligand Binding Domain Competitive Binding Assay (fluorescence polarisation, PolarScreen). The conditions noted are these: FP, 12 nM AR-LBD, 2 nM fluormone, 4-6 hours at room temperature, 50% reduction in tracer binding; read-out: Androgen Receptor Ligand Binding Domain Competitive Binding Assay (b) IC50/μM. As for the experimental part: The ability of compounds to bind to isolated Androgen Receptor Ligand binding domain (AR-LBD) was assessed in competition assays using a Fluorescence Polarisation (FP) detection end-point.
For the FP test, an assay test kit was purchased from Invitrogen and used to measure compound binding to the isolated rat AR-LBD which shares 100% sequence identity to the human AR-LBD. The Invitrogen PolarScreen™ Androgen Receptor Competitor Assay Red (Product Code No. PV4293), is a fluorescence polarisation (FP)—based competition assay which measures if test compound can displace a fluorescently-labelled tracer compound. If the test compound binds to the AR-LBD it will prevent the formation of the receptor/tracer complex, which will result in a low polarisation value.
The assay was performed as follows with all reagent additions carried out using the Thermo Scientific Matrix PlateMate: • 1. Acoustic dispense 120 nl of the test compound into a black low volume 384 well assay plates. • 2. Volumes of reagents are added to give the following final concentrations of assay components:—0.5 mM DTT, 2 nM fluormone, 12 nM AR-LBD in the Invitrogen Assay Buffer • 3. Dispense 15 μl of the assay mix into each well of the assay plate • 4. Cover the assay plate to protect the reagents from light and evaporation, and incubate at room temperature for 4-6 hours. • 5. Excite at […] and measure the fluorescent emission signal of each well at 590 nm in FP mode using the BMG PheraSTAR or other suitable plate reader.
Compounds were dosed directly from a compound source microplate containing serially diluted compound (4 wells containing 10 mM, 0.1 mM, 1 μM and 10 nM final compound respectively) to an assay microplate using an Labcyte Echo 550. The Echo 550 is a liquid handler that uses acoustic technology to perform direct microplate-to-microplate transfers of DMSO compound solutions and the system can be programmed to transfer multiple small nL volumes of compound from the different source plate wells to give the desired serial dilution of compound in the assay which is then back-filled to normalise the DMSO concentration across the dilution range. In total 120 nL of compound plus DMSO was added to each well and compounds tested in a 12-point concentration response format over a final compound concentration range of 100, 30, 10, 3, 1, 0.3, 0.1, 0.03, 0.01, 0.003, 0.001, 0.0001 μM, respectively.
FP dose response data obtained with each compound was exported into a suitable software package (such as Origin) to perform curve fitting analysis. Competitive AR binding may be expressed as an IC50 value. This is determined by calculation of the concentration of compound that is required to give a 50% reduction in tracer compound binding to AR-LBD.
For orientation: Polarisation of emitted light reports the rotation of a fluorescent probe.
With `CC(=O)N1CCN(CCCOc2ccc(C3CCN(C4=Nn5c(nnc5C(F)(F)F)CC4)CC3)cc2)CC1` [Example 4.1, 6-[4-[4-[3-(4-acetylpiperazin-1-yl)propoxy]phenyl]piperidin-1-yl]-3-(trifluoromethyl)-7,8-dihydro[1,2,4]triazolo[4,3-b]pyridazine], the IC50 was 23.8 µM. With `CC(=O)N1CCN(CCOc2ccc(C3CCN(C4=Nn5c(nnc5C(F)(F)F)CC4)CC3)cc2)CC1` [Example 5.1, 6-(4-{4-[2-(4-acetylpiperazin-1-yl)ethoxy]phenyl}piperidin-1-yl)-3-(trifluoromethyl)-7,8-dihydro[1,2,4]triazolo[4,3-b]pyridazine], the IC50 was determined as 22.9 µM. To `CN1CCN(CCOc2ccc(C3CCN(C4=Nn5c(nnc5C(F)(F)F)CC4)CC3)cc2)CC1=O` [Example 37, 1-methyl-4-[2-(4-{1-[3-(trifluoromethyl)-7,8-dihydro[1,2,4]triazolo[4,3-b]pyridazin-6-yl]piperidin-4-yl}phenoxy)ethyl]piperazin-2-one] belongs 61.9 µM. Take `CC(=O)N1CCN(CCOc2ccc(C3CCN(C4=Nn5c(nnc5C(F)(F)F)CC4)CC3)cc2)C[C@H]1C` [Example 51, 6-[4-(4-{2-[(3R)-4-acetyl-3-methylpiperazin-1-yl]ethoxy}phenyl)piperidin-1-yl]-3-(trifluoromethyl)-7,8-dihydro[1,2,4]triazolo[4,3-b]pyridazine]: the IC50 turned out to be 30.3 µM.
